Assay results: patent US20070049564A1 (Wyeth, priority 2005, published 2007)
In brackets after ≈: the same amount, converted by molar mass. Read-outs that look alike come from different tables or passages of the source.

What was measured:
[1] = test system: S. aureus GC 1131; assay: MIC, broth microdilution; conditions: Staphylococcus aureus, GC1131, S. aureus GC 1131
[2] = test system: E. coli GC 6465; assay: MIC, broth microdilution; conditions: Escherichia coli, GC6465, E. coli GC 6465
[3] = test system: E. coli GC 2233; assay: MIC, broth microdilution; conditions: Escherichia coli, GC2233, E. coli GC 2233
Procedure: Antimicrobial susceptibility testing. The in vitro activities of the antibiotics are determined by the broth microdilution method as recommended by the National Committee for Clinical Laboratory Standards (NCCLS) (1). Mueller-Hinton II broth (MHBII)(BBL Cockeysville, Md.) is the medium employed in the testing procedures. Microtiter plates containing serial dilutions of each antimicrobial agent are inoculated with each organism to yield the appropriate density (10^5 CFU/ml) in a 100 μl final volume. The plates are incubated for 18-22 hours at 35° C. in ambient air.
Representative compounds were first incubated in mouse serum for an hour prior to the in vitro testing against a panel of selected gram-positive and gram-negative bacteria strains. All compounds were also pre-incubated in water for an hour prior to testing as control.

[4] = test system: S. pyogenes GC 4563; assay: MIC, broth microdilution; conditions: Streptococcus pyogenes, GC4563, S. pyogenes GC 4563
[5] = test system: Staph.; assay: Range of MIC for Staph. strains, including MRSA; conditions: Staphylococcus aureus, MRSA
[6] = test system: E. coli GC 2272; assay: MIC, broth microdilution; conditions: Escherichia coli, GC2272, E. coli GC 2272
[7] = test system: E. faecium GC 2243; assay: MIC, broth microdilution; conditions: Enterococcus faecium, GC2243, E. faecium GC 2243
[8] = test system: S. aureus GC 4536; assay: MIC, broth microdilution; conditions: Staphylococcus aureus, GC4536, S. aureus GC 4536
[9] = test system: E. coli GC 2234; assay: MIC, broth microdilution; conditions: Escherichia coli, GC2234, E. coli GC 2234
[10] = test system: E. coli GC 2236; assay: MIC, broth microdilution; conditions: Escherichia coli, GC2236, E. coli GC 2236
[11] = test system: S. epidermidis GC 4935; assay: MIC, broth microdilution; conditions: Staphylococcus epidermidis, GC4935, S. epidermidis GC 4935
[12] = test system: E. faecalis GC 2265; assay: MIC, broth microdilution; conditions: Enterococcus faecalis, GC2265, E. faecalis GC 2265
[13] = test system: c. albicans GC 3066; assay: MIC, broth microdilution
[14] = test system: S. aureus GC 6469; assay: MIC, broth microdilution; conditions: Staphylococcus aureus, GC6469, S. aureus GC 6469
[15] = test system: S. aureus GC 1079; assay: MIC, broth microdilution; conditions: Staphylococcus aureus, GC1079, S. aureus GC 1079
[16] = test system: E. coli GC 1073; assay: MIC, broth microdilution; conditions: Escherichia coli, GC1073, E. coli GC 1073
[17] = test system: S. pneumoniae+ GC 4465; assay: MIC, broth microdilution; conditions: Streptococcus pneumoniae, S. pneumoniae+ GC 4465
[18] = test system: S. aureus GC 6466; assay: MIC, broth microdilution; conditions: Staphylococcus aureus, GC6466, S. aureus GC 6466
[19] = test system: E. coli; assay: Range of MIC for E. coli strains; conditions: Escherichia coli
[20] = test system: E. faecalis GC 4555; assay: MIC, broth microdilution; conditions: Enterococcus faecalis, GC4555, E. faecalis GC 4555

CCCN(CC(=O)Nc1cc(N(C)C)c2c(c1O)C(=O)C1=C(O)[C@]3(O)C(=O)C(C(N)=O)=C(O)[C@@H](N(C)C)[C@@H]3C[C@@H]1C2)C(=O)OCOC(=O)c1ccc(OC)cc1 [Example 6, ({[(2-{[(5aR,6aS,7S,10aS)-9-(aminocarbonyl)-4,7-bis(dimethylamino)-1,8,10a,11-tetrahydroxy-10,12-dioxo-5,5a,6,6a,7,10,10a,12-octahydrotetracen-2-yl]amino}-2-oxoethyl)(propyl)amino]carbonyl}oxy)methyl 4-methoxybenzoate]
MIC ([1]; Mouse Serum pre-incubation): 0.5 µg/mL (≈ 0.641 µM)
MIC ([1]; Water pre-incubation): 1 µg/mL (≈ 1.28 µM)
MIC ([2]; Mouse Serum pre-incubation): 4 µg/mL (≈ 5.13 µM)
MIC ([2]; Water pre-incubation): > 64 µg/mL
MIC ([3]; Mouse Serum pre-incubation): 2 µg/mL (≈ 2.56 µM)
MIC ([3]; Water pre-incubation): 16 µg/mL (≈ 20.5 µM)
MIC ([4]; Mouse Serum pre-incubation): 0.25 µg/mL (≈ 0.321 µM)
MIC ([4]; Water pre-incubation): 0.25 µg/mL (≈ 0.321 µM)
MIC ([5]; read-out: Range of MIC, Staph (Mouse Serum)): 0.5 to 2 µg/mL (≈ 0.641 to 2.56 µM)
MIC ([5]; read-out: Range of MIC, Staph (Water)): 1 to 4 µg/mL (≈ 1.28 to 5.13 µM)
MIC ([5]; read-out: Range of MIC, Staph. (mouse serum)): 0.5 to 2 µg/mL (≈ 0.641 to 2.56 µM)
MIC ([5]; read-out: Range of MIC, Staph. (water)): 1 to 4 µg/mL (≈ 1.28 to 5.13 µM)
MIC ([6]; Mouse Serum pre-incubation): 1 µg/mL (≈ 1.28 µM)
MIC ([6]; Water pre-incubation): 16 µg/mL (≈ 20.5 µM)
MIC ([7]; Mouse Serum pre-incubation): 0.5 µg/mL (≈ 0.641 µM)
MIC ([7]; Water pre-incubation): 2 µg/mL (≈ 2.56 µM)
MIC ([8]; Mouse Serum pre-incubation): 0.5 µg/mL (≈ 0.641 µM)
MIC ([8]; Water pre-incubation): 2 µg/mL (≈ 2.56 µM)
MIC ([9]; Mouse Serum pre-incubation): 1 µg/mL (≈ 1.28 µM)
MIC ([9]; Water pre-incubation): 16 µg/mL (≈ 20.5 µM)
MIC ([10]; Mouse Serum pre-incubation): 2 µg/mL (≈ 2.56 µM)
MIC ([10]; Water pre-incubation): 8 µg/mL (≈ 10.3 µM)
MIC ([11]; Mouse Serum pre-incubation): 1 µg/mL (≈ 1.28 µM)
MIC ([11]; Water pre-incubation): 4 µg/mL (≈ 5.13 µM)
MIC ([12]; Mouse Serum pre-incubation): 2 µg/mL (≈ 2.56 µM)
MIC ([12]; Water pre-incubation): 4 µg/mL (≈ 5.13 µM)
MIC ([13]; Candida albicans, GC3066): > 64 µg/mL
MIC ([13]; c. albicans GC 3066, Water pre-incubation): >64 UG/ML
MIC ([14]; Mouse Serum pre-incubation): 2 µg/mL (≈ 2.56 µM)
MIC ([14]; Water pre-incubation): 4 µg/mL (≈ 5.13 µM)
MIC ([15]; Mouse Serum pre-incubation): 2 µg/mL (≈ 2.56 µM)
MIC ([15]; Water pre-incubation): 4 µg/mL (≈ 5.13 µM)
MIC ([16]; Mouse Serum pre-incubation): 2 µg/mL (≈ 2.56 µM)
MIC ([16]; Water pre-incubation): 16 µg/mL (≈ 20.5 µM)
MIC ([17]; Mouse Serum pre-incubation): 2 µg/mL (≈ 2.56 µM)
MIC ([17]; Water pre-incubation): 2 µg/mL (≈ 2.56 µM)
MIC ([18]; Mouse Serum pre-incubation): 0.25 µg/mL (≈ 0.321 µM)
MIC ([18]; Water pre-incubation): 1 µg/mL (≈ 1.28 µM)
MIC ([19]; 20 h, read-out: Range of MIC, E. coli (Mouse Serum)): 1 to 2 µg/mL (≈ 1.28 to 2.56 µM)
MIC ([19]; read-out: Range of MIC, E. coli (Water)): 8 to 64 µg/mL (≈ 10.3 to 82.1 µM)
MIC ([19]; read-out: Range of MIC, E. coli (mouse serum)): 1 to 2 µg/mL (≈ 1.28 to 2.56 µM)
MIC ([19]; read-out: Range of MIC, E. coli (water)): 8 to 64 µg/mL (≈ 10.3 to 82.1 µM)
MIC ([20]; Mouse Serum pre-incubation): 1 µg/mL (≈ 1.28 µM)
MIC ([20]; Water pre-incubation): 4 µg/mL (≈ 5.13 µM)
